From US12209145B2, “PCSK9 antagonist compounds” (Merck Sharp & Dohme LLC, priority 2018, dated 2025)

What was measured:
[1] = biological target: T1, PCSK9 (Homo sapiens, UniProt Q8NBP7); assay: PCSK9 Alexa FRET Ultra TR-FRET assay (displacement of AlexaFluor647 tagged cyclic peptide); assay type: binding; conditions: 0.5 nM biotinylated PCSK9, 960 nM AF cyclic peptide, Ki calculated from IC50 and KD of AF peptide
T1 construct: Biotinylated PCSK9 was obtained commercially; purchased
Procedure: (§1) The following is a description of the assays used to determine activity of compounds of the invention, and any comparator compounds reported, toward PCSK9 antagonism. Biotinylated PCSK9 was obtained commercially.
A solution containing 1 nM biotinylated PCSK9+2.5 nM Lance Streptavidin Europium (Strep-Eu) is made in 50 mM HEPES pH 7.4, 0.15 M NaCl, 5 mM CaCl2, 0.01% BSA, and 0.01% Surfactant P20. A separate solution containing 1920 nM of the AlexaFluor tagged cyclic peptide is made in the same buffer system. An Echo is used to transfer 0.015 ul of compound plus 0.735 ul of DMSO to each well of an assay plate followed by the addition of 15 ul of PCSK9+Stept-Eu and 15 ul of AF peptide. The final assay volume is 30.750 ul containing 0.5 nM PCSK9, 1.25 nM Strep-Eu, and 960 nM AF cyclic peptide. The reaction is incubated at room temperature for at least two hours prior to fluorescence measurements using an Envision Multilabel Reader. IC50 values are determined by fitting data to a sigmoidal dose-response curve using nonlinear regression. Ki is then calculated from the IC50 and the KD of AF cyclic peptide. Counts (B-counts) of the europium-labeled PCSK9 are followed to observe if compounds are adversely affecting PCSK9. A fall off of the B-counts is likely indicates a false positive of inhibition. Data from this procedure is reported as “Ki Ultra=‘numerical value’ (data reported is nanomolar)”

[2] = biological target: T1, PCSK9; assay: PCSK9 Alexa FRET Plus TR-FRET assay (displacement of AlexaFluor647 tagged cyclic peptide Reagent B); assay type: binding; conditions: 0.5 nM biotinylated PCSK9, 960 nM AF cyclic peptide Reagent B, Ki calculated from IC50 and KD of AF peptide
Procedure: as §1
A solution containing 1 nM biotinylated PCSK9+2.5 nM Lance Streptavidin Europium (Strep-Eu) is made in 50 mM HEPES pH 7.4, 0.15 M NaCl, 5 mM CaCl2, 0.01% BSA, and 0.01% Surfactant P20. A separate solution containing 1920 nM of the AlexaFluor tagged cyclic peptide is made in the same buffer system. An Echo is used to transfer 0.075 ul of compound plus 0.675 ul of DMSO to each well of an assay plate followed by the addition of 15 ul of PCSK9+Stept-Eu and 15 ul of AF peptide. The final assay volume is 30.750 ul containing 0.5 nM PCSK9, 1.25 nM Strep-Eu, and 960 nM AF cyclic peptide. The reaction is incubated at room temperature for at least two hours prior to fluorescence measurements using an Envision Multilabel Reader. IC50 values are determined by fitting data to a sigmoidal dose-response curve using nonlinear regression. Ki is then calculated from the IC50 and the KD of AF cyclic peptide. Counts (B-counts) of the europium-labeled PCSK9 are followed to observe if compounds are adversely affecting PCSK9. A fall off of the B-counts is likely indicates a false positive of inhibition. Data from this procedure is reported as “P=‘numerical value’ (nanomolar)”
Activity data obtained by one or both of the above-described procedures is reported for selected example compounds of the invention in the following format: Example No.: A (standard TR Fret)=‘numerical value’; P (Alexa Fret plus standard TR Fret)=‘numerical value’/, note that all values reported are nanomolar.

T1 sequence (Q8NBP7 153-692): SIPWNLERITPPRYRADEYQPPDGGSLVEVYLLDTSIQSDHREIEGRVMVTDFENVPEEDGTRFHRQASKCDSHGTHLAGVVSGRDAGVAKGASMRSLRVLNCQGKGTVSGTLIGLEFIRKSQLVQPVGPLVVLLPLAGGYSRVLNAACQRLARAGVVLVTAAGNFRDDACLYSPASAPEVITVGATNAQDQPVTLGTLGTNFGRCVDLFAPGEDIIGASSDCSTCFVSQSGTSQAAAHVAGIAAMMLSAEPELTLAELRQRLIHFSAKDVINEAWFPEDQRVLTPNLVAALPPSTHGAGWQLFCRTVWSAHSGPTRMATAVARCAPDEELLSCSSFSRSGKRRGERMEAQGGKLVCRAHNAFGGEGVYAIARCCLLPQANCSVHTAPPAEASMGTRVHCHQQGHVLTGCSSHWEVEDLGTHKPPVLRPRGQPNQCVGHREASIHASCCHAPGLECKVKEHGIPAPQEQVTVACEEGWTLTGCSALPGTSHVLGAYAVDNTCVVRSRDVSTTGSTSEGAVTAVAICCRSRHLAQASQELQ

| Ki ([1]; read-out: Ki Ultra) [nM] | Ki ([2]; read-out: Ki Plus) [nM] | SMILES | Ki ([1]; Ki Ultra) [nM] | Ki ([2]; Ki Plus) [nM] |
| --- | --- | --- | --- | --- |
|  |  | COc1ccc(C[C@@H]2NC(=O)[C@H]([C@@H](C)O)NC(=O)[C@@H]3[C@@H]4CCN3C(=O)[C@@H]3Cc5cn(c6ccc(F)cc56)CCCCCCN(Cc5ccc(cc5)CCNC(=O)[C@]5(C)CCCN5C2=O)C(=O)CCC(=O)N[C@@H](CCCC[N+](C)(C)C)C(=O)N[C@H](CNC(=O)CCOCCOCC[N+](C)(C)C)C(=O)N[C@@H](Cc2cccc(c2)CNC(=O)CO4)C(=O)N3)cc1 (stereo in doubt) [Ex-24] | 0.00767 | 0.00812 |
|  |  | COc1ccc(C[C@@H]2NC(=O)[C@H]([C@@H](C)O)NC(=O)[C@@H]3[C@@H]4CCN3C(=O)[C@@H]3Cc5cn(c6ccc(F)cc56)CCCCCCN(Cc5ccc(cc5)CCNC(=O)[C@]5(C)CCCN5C2=O)C(=O)CCC(=O)N[C@@H](C)C(=O)N[C@H](CN)C(=O)N[C@@H](Cc2cccc(c2)CNC(=O)CO4)C(=O)N3)cc1 [Ex-01] | 0.0046 | < 0.00558 |
| 0.00471 | ≤ 0.00558 | COc1ccc(C[C@@H]2NC(=O)[C@H]([C@@H](C)O)NC(=O)[C@@H]3[C@@H]4CCN3C(=O)[C@@H]3Cc5cn(c6ccc(F)cc56)C/C=C\CCCN(Cc5ccc(cc5)CCNC(=O)[C@]5(C)CCCN5C2=O)C(=O)CCC(=O)N[C@@H](CNC(=O)CCOCCOCC[N+](C)(C)C)C(=O)N[C@H](C)C(=O)N[C@@H](Cc2cccc(c2)CNC(=O)CO4)C(=O)N3)cc1 [Ex-04] |  |  |
| 0.033 | 0.00962 | COc1ccc(C[C@@H]2NC(=O)[C@H]([C@@H](C)O)NC(=O)[C@@H]3[C@@H]4CCN3C(=O)[C@@H]3Cc5cn(c6ccc(F)cc56)C/C=C/CCCN(Cc5ccc(cc5)CCNC(=O)[C@]5(C)CCCN5C2=O)C(=O)CCC(=O)N[C@@H](CNC(=O)CCOCCOCC[N+](C)(C)C)C(=O)N[C@H](C)C(=O)N[C@@H](Cc2cccc(c2)CNC(=O)CO4)C(=O)N3)cc1 [Ex-05] |  |  |
| 0.00342 | 0.00568 | COc1ccc(C[C@@H]2NC(=O)[C@H]([C@@H](C)O)NC(=O)[C@@H]3[C@@H]4CCN3C(=O)[C@@H]3Cc5cn(c6ccc(F)cc56)C/C=C/CCCN(Cc5ccc(cc5)CCNC(=O)[C@]5(C)CCCN5C2=O)C(=O)CCC(=O)N[C@@H](C)C(=O)N[C@H](CNC(=O)CCCCC[N+](C)(C)C)C(=O)N[C@@H](Cc2cccc(c2)CNC(=O)CO4)C(=O)N3)cc1 [Ex-06] |  |  |
| 0.0675 | 0.0591 | COc1ccc(C[C@@H]2NC(=O)[C@H]([C@@H](C)O)NC(=O)[C@@H]3[C@@H]4CCN3C(=O)[C@@H]3Cc5cn(c6ccc(F)cc56)C/C=C/CCCN(Cc5ccc(cc5)CCNC(=O)[C@]5(C)CCCN5C2=O)C(=O)CCC(=O)N[C@H]2CN(C(=O)CCOCCOCC[N+](C)(C)C)CCCCC(=O)NC[C@@H](NC2=O)C(=O)N[C@@H](Cc2cccc(c2)CNC(=O)CO4)C(=O)N3)cc1 [Ex-07] |  |  |
|  |  | COc1ccc(C[C@@H]2NC(=O)[C@H]([C@@H](C)O)NC(=O)[C@@H]3[C@@H]4CCN3C(=O)[C@@H]3Cc5cn(c6ccc(F)cc56)Cc5cn(nn5)Cc5cc(ccc5CNC(=O)CCC(=O)N[C@@H](C)C(=O)N[C@H](CNC(=O)CCOCCOCC[N+](C)(C)C)C(=O)N[C@@H](Cc5cccc(c5)CNC(=O)CO4)C(=O)N3)CCNC(=O)[C@]3(C)CCCN3C2=O)cc1 [Ex-09] | 0.247 | 0.0919 |
| 0.0249 | 0.00574 | COc1ccc(C[C@@H]2NC(=O)[C@H]([C@@H](C)O)NC(=O)[C@@H]3[C@@H]4CCN3C(=O)[C@@H]3Cc5cn(c6ccc(F)cc56)Cc5cn(nn5)C[C@@H](NC(=O)CCC(=O)N[C@@H](C)C(=O)N[C@H](CNC(=O)CCOCCOCC[N+](C)(C)C)C(=O)N[C@@H](Cc5cccc(c5)CNC(=O)CO4)C(=O)N3)c3ccc(cc3)CCNC(=O)[C@]3(C)CCCN3C2=O)cc1 [Ex-10] |  |  |
| 0.207 | 0.0433 | COc1ccc(C[C@@H]2NC(=O)[C@H]([C@@H](C)O)NC(=O)[C@@H]3[C@@H]4CCN3C(=O)[C@@H]3Cc5cn(c6ccc(F)cc56)Cc5cn(nn5)C[C@@H](NC(=O)CCC(=O)N[C@@H](CNC(=O)CCOCCOCC[N+](C)(C)C)C(=O)N[C@H](C)C(=O)N[C@@H](Cc5cccc(c5)CNC(=O)CO4)C(=O)N3)c3ccc(cc3)CCNC(=O)[C@]3(C)CCCN3C2=O)cc1 [Ex-11] |  |  |
| 0.0225 | 0.0145 | COc1ccc(C[C@@H]2NC(=O)[C@H]([C@@H](C)O)NC(=O)[C@@H]3[C@@H]4CCN3C(=O)[C@@H]3Cc5cn(c6ccc(F)cc56)Cc5cn(nn5)CC(NC(=O)CCCCCC(=O)N[C@H](CNC(=O)CCOCCOCC[N+](C)(C)C)C(=O)N[C@@H](Cc5cccc(c5)CNC(=O)CO4)C(=O)N3)c3ccc(cc3)CCNC(=O)[C@]3(C)CCCN3C2=O)cc1 [Ex-12] |  |  |
| 0.477 | 0.145 | COc1ccc(C[C@@H]2NC(=O)[C@H]([C@@H](C)O)NC(=O)[C@@H]3[C@@H]4CCN3C(=O)[C@@H]3Cc5cn(c6ccc(F)cc56)Cc5cn(nn5)CCN(Cc5ccc(cc5)CCNC(=O)[C@]5(C)CCCN5C2=O)C(=O)CCC(=O)N[C@@H](CNC(=O)CCOCCOCC[N+](C)(C)C)C(=O)N[C@H](C)C(=O)N[C@@H](Cc2cccc(c2)CNC(=O)CO4)C(=O)N3)cc1 [Ex-13] |  |  |
| 0.021 | 0.016 | COc1ccc(C[C@@H]2NC(=O)[C@H]([C@@H](C)O)NC(=O)[C@@H]3[C@@H]4CCN3C(=O)[C@@H]3Cc5cn(c6ccc(F)cc56)Cc5cn(nn5)CCN(Cc5ccc(cc5)CCNC(=O)[C@]5(C)CCCN5C2=O)C(=O)CCC(=O)N[C@@H](C)C(=O)N[C@H](CNC(=O)CCOCCOCC[N+](C)(C)C)C(=O)N[C@@H](Cc2cccc(c2)CNC(=O)CO4)C(=O)N3)cc1 [Ex-14] |  |  |
| 0.26 | 0.103 | COc1ccc(C[C@@H]2NC(=O)[C@H]([C@@H](C)O)NC(=O)[C@@H]3[C@@H]4CCN3C(=O)[C@@H]3Cc5cn(c6ccc(F)cc56)Cc5cn(nn5)CCN(Cc5ccc(cc5)CCNC(=O)[C@]5(C)CCCN5C2=O)C(=O)CCCC(=O)N[C@@H](CNC(=O)CCOCCOCC[N+](C)(C)C)C(=O)N[C@H](C)C(=O)N[C@@H](Cc2cccc(c2)CNC(=O)CO4)C(=O)N3)cc1 [Ex-15] |  |  |
| 0.0514 | 0.0142 | COc1ccc(C[C@@H]2NC(=O)[C@H]([C@@H](C)O)NC(=O)[C@@H]3[C@@H]4CCN3C(=O)[C@@H]3Cc5cn(c6ccc(F)cc56)Cc5cn(nn5)CCN(Cc5ccc(cc5)CCNC(=O)[C@]5(C)CCCN5C2=O)C(=O)CCCCCC(=O)N[C@H](CNC(=O)CCOCCOCC[N+](C)(C)C)C(=O)N[C@@H](Cc2cccc(c2)CNC(=O)CO4)C(=O)N3)cc1 [Ex-16] |  |  |
|  | ≤ 0.00558 | COc1ccc(C[C@@H]2NC(=O)[C@H]([C@@H](C)O)NC(=O)[C@@H]3[C@@H]4CCN3C(=O)[C@@H]3Cc5cn(c6ccc(F)cc56)CCCCN(Cc5ccc(cc5)CCNC(=O)[C@]5(C)CCCN5C2=O)C(=O)CCC(=O)N[C@@H](C)C(=O)N[C@H](CNC(=O)CCOCCOCC[N+](C)(C)C)C(=O)N[C@@H](Cc2cccc(c2)CNC(=O)CO4)C(=O)N3)cc1 [Ex-28] |  |  |
|  |  | COc1ccc(C[C@@H]2NC(=O)[C@H]([C@@H](C)O)NC(=O)[C@@H]3[C@@H]4CCN3C(=O)[C@@H]3Cc5cn(c6ccc(F)cc56)CCCCCCN(Cc5ccc(cc5)CCNC(=O)[C@]5(C)CCCN5C2=O)C(=O)CCC(=O)N[C@@H](C)C(=O)N[C@H](CNC(=O)CCOCC[N+](C)(C)C)C(=O)N[C@@H](Cc2cccc(c2)CNC(=O)CO4)C(=O)N3)cc1 [Ex-31] |  | < 0.00558 |

| SMILES | Ki ([1]; read-out: Ki Ultra) [nM] | Ki ([2]; read-out: Ki Plus) [nM] | Ki ([1]; Ki Ultra) [nM] | Ki ([2]; Ki Plus) [nM] |
| --- | --- | --- | --- | --- |
| COc1ccc(C[C@@H]2NC(=O)[C@H]([C@@H](C)O)NC(=O)[C@@H]3[C@@H]4CCN3C(=O)[C@@H]3Cc5cn(c6ccc(F)cc56)Cc5cn(nn5)Cc5cc(ccc5CNC(=O)CCC(=O)N[C@@H](C)C(=O)N[C@H](CNC(=O)CCOCCOCC[N+](C)(C)C)C(=O)N[C@@H](Cc5cccc(c5)CNC(=O)CO4)C(=O)N3)CCNC(=O)[C@]3(C)CCCN3C2=O)cc1 [Ex-08] | 0.0683 | 0.0157 |  |  |
